PubChem BioAssay (NCI)
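Growth conditions: 96-well plates. Treatment: test compound, 48 hours, 5 concentrations. Analysis: linear interpolation between bracketing concentrations; unreached endpoints set to highest concentration. GI50 marks 50% less growth. TGI is the concentration that stops growth completely.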

Experiments:
Experiment in all cases: DTP human tumour cell line panel, 48 h
IGROV1 ovarian = tested on: IGROV1 ovarian
UACC-62 melanoma = tested on: UACC-62 melanoma
M14 melanoma = tested on: M14 melanoma
UACC-257 melanoma = tested on: UACC-257 melanoma
NCI/ADR-RES ovarian = tested on: NCI/ADR-RES ovarian
SK-MEL-28 melanoma = tested on: SK-MEL-28 melanoma
SN12C renal = tested on: SN12C renal
LOX IMVI melanoma = tested on: LOX IMVI melanoma
HCT-116 colon = tested on: HCT-116 colon
UO-31 renal = tested on: UO-31 renal
786-0 renal = tested on: 786-0 renal
HCT-15 colon = tested on: HCT-15 colon
COLO 205 colon = tested on: COLO 205 colon
T-47D breast = tested on: T-47D breast
MCF7 breast = tested on: MCF7 breast
BT-549 breast = tested on: BT-549 breast
RPMI-8226 leukemia = tested on: RPMI-8226 leukemia
SF-268 CNS = tested on: SF-268 CNS
TK-10 renal = tested on: TK-10 renal
MOLT-4 leukemia = tested on: MOLT-4 leukemia
OVCAR-4 ovarian = tested on: OVCAR-4 ovarian
HOP-62 NSCLC = tested on: HOP-62 NSCLC
NCI-H23 lung = tested on: NCI-H23 lung
NCI-H522 lung = tested on: NCI-H522 lung
NCI-H226 lung = tested on: NCI-H226 lung
ACHN renal = tested on: ACHN renal
A549 NSCLC = tested on: A549 NSCLC
NCI-H460 lung = tested on: NCI-H460 lung
HOP-92 NSCLC = tested on: HOP-92 NSCLC
EKVX NSCLC = tested on: EKVX NSCLC
CCRF-CEM leukemia = tested on: CCRF-CEM leukemia
RXF 393 renal = tested on: RXF 393 renal
U251 CNS = tested on: U251 CNS
A498 renal = tested on: A498 renal
OVCAR-3 ovarian = tested on: OVCAR-3 ovarian
DU-145 prostate = tested on: DU-145 prostate
SNB-19 CNS = tested on: SNB-19 CNS
OVCAR-5 ovarian = tested on: OVCAR-5 ovarian
SNB-75 CNS = tested on: SNB-75 CNS
MDA-MB-231 breast = tested on: MDA-MB-231 breast
HCC-2998 colon = tested on: HCC-2998 colon
MALME-3M melanoma = tested on: MALME-3M melanoma
SF-295 CNS = tested on: SF-295 CNS
MDA-MB-435 = tested on: MDA-MB-435
CAKI-1 renal = tested on: CAKI-1 renal
SK-OV-3 ovarian = tested on: SK-OV-3 ovarian
HL-60(TB) leukemia = tested on: HL-60(TB) leukemia
PC-3 prostate = tested on: PC-3 prostate
SW-620 colon = tested on: SW-620 colon
SF-539 CNS = tested on: SF-539 CNS
KM12 colon = tested on: KM12 colon
SR leukemia = tested on: SR leukemia
HT29 colon = tested on: HT29 colon
SK-MEL-2 melanoma = tested on: SK-MEL-2 melanoma
SK-MEL-5 melanoma = tested on: SK-MEL-5 melanoma
K-562 leukemia = tested on: K-562 leukemia
HS 578T breast = tested on: HS 578T breast

With `COc1ccc2c(c1)c(-c1nc(-c3c[nH]c4ncccc34)cs1)cn2CCCN1CCOCC1` the GI50 (IGROV1 ovarian) was 2.09 µM, the TGI (IGROV1 ovarian) was 8.69 µM and the GI50 (UACC-62 melanoma) was 1.97 µM. For the same compound, the TGI (UACC-62 melanoma) was 4.32 µM, the GI50 (M14 melanoma) was 1.77 µM and the TGI (M14 melanoma) was 3.58 µM. It also gave a GI50 (UACC-257 melanoma) of 2.04 µM, a TGI (UACC-257 melanoma) of 3.81 µM and a GI50 (NCI/ADR-RES ovarian) of 3.02 µM. For the same compound, the TGI (NCI/ADR-RES ovarian) was 11.3 µM, the GI50 (SK-MEL-28 melanoma) was 1.95 µM and the TGI (SK-MEL-28 melanoma) was 3.83 µM. It also gave a GI50 (SN12C renal) of 3.16 µM, a TGI (SN12C renal) of 15.6 µM and a GI50 (LOX IMVI melanoma) of 1.74 µM. The TGI (LOX IMVI melanoma) was 3.27 µM, the GI50 (HCT-116 colon) was 1.85 µM and the TGI (HCT-116 colon) was 4.04 µM. It also gave a GI50 (UO-31 renal) of 1.37 µM, a TGI (UO-31 renal) of 3.67 µM and a GI50 (786-0 renal) of 1.74 µM. It also gave a TGI (786-0 renal) of 3.44 µM, a GI50 (HCT-15 colon) of 2.32 µM and a TGI (HCT-15 colon) of 7.7 µM. The GI50 (COLO 205 colon) was 1.82 µM, the TGI (COLO 205 colon) was 3.8 µM and the GI50 (T-47D breast) was 2.07 µM. It also gave a TGI (T-47D breast) of 7.83 µM, a GI50 (MCF7 breast) of 1.43 µM and a TGI (MCF7 breast) of 8.83 µM. It also gave a GI50 (BT-549 breast) of 2 µM, a TGI (BT-549 breast) of 5.87 µM and a GI50 (RPMI-8226 leukemia) of 1.92 µM. It also gave a TGI (RPMI-8226 leukemia) of 4.86 µM, a GI50 (SF-268 CNS) of 2.69 µM and a TGI (SF-268 CNS) of 10.3 µM. It also gave a GI50 (TK-10 renal) of 3.48 µM, a TGI (TK-10 renal) of 13.6 µM and a GI50 (MOLT-4 leukemia) of 1.85 µM. It also gave a TGI (MOLT-4 leukemia) of 4.4 µM, a GI50 (OVCAR-4 ovarian) of 2.14 µM and a TGI (OVCAR-4 ovarian) of 8.27 µM. For the same compound, the GI50 (HOP-62 NSCLC) was 2.24 µM, the TGI (HOP-62 NSCLC) was 7.18 µM and the GI50 (NCI-H23 lung) was 2.68 µM. It also gave a TGI (NCI-H23 lung) of 8.75 µM, a GI50 (NCI-H522 lung) of 2.07 µM and a TGI (NCI-H522 lung) of 6.03 µM. The GI50 (NCI-H226 lung) was 3.1 µM, the TGI (NCI-H226 lung) was 15.9 µM and the GI50 (ACHN renal) was 2.5 µM. It also gave a TGI (ACHN renal) of 8.22 µM, a GI50 (A549 NSCLC) of 4.04 µM and a TGI (A549 NSCLC) of 13.1 µM. For the same compound, the GI50 (NCI-H460 lung) was 2.54 µM, the TGI (NCI-H460 lung) was 6.6 µM and the GI50 (HOP-92 NSCLC) was 2.42 µM. It also gave a TGI (HOP-92 NSCLC) of 6.82 µM, a GI50 (EKVX NSCLC) of 3.01 µM and a TGI (EKVX NSCLC) of 16.8 µM. The GI50 (CCRF-CEM leukemia) was 2.76 µM, the TGI (CCRF-CEM leukemia) was 8.09 µM and the GI50 (RXF 393 renal) was 2.09 µM. The TGI (RXF 393 renal) was 4.88 µM, the GI50 (U251 CNS) was 2.25 µM and the TGI (U251 CNS) was 5.09 µM. For the same compound, the GI50 (A498 renal) was 0.481 µM, the TGI (A498 renal) was 2.04 µM and the GI50 (OVCAR-3 ovarian) was 2.57 µM. The TGI (OVCAR-3 ovarian) was 7.93 µM, the GI50 (DU-145 prostate) was 3.15 µM and the TGI (DU-145 prostate) was 11 µM. For the same compound, the GI50 (SNB-19 CNS) was 2.86 µM, the TGI (SNB-19 CNS) was 8.71 µM and the GI50 (OVCAR-5 ovarian) was 2.6 µM. For the same compound, the TGI (OVCAR-5 ovarian) was 7.91 µM, the GI50 (SNB-75 CNS) was 1.27 µM and the TGI (SNB-75 CNS) was 3.4 µM. For the same compound, the GI50 (MDA-MB-231 breast) was 1.86 µM, the TGI (MDA-MB-231 breast) was 4.54 µM and the GI50 (HCC-2998 colon) was 2.04 µM. For the same compound, the TGI (HCC-2998 colon) was 4.34 µM, the GI50 (MALME-3M melanoma) was 1.39 µM and the TGI (MALME-3M melanoma) was 3.14 µM. It also gave a GI50 (SF-295 CNS) of 1.91 µM, a TGI (SF-295 CNS) of 4.17 µM and a GI50 (MDA-MB-435) of 1.75 µM. It also gave a TGI (MDA-MB-435) of 3.37 µM, a GI50 (CAKI-1 renal) of 1.88 µM and a TGI (CAKI-1 renal) of 4.67 µM. For the same compound, the GI50 (SK-OV-3 ovarian) was 2.83 µM, the TGI (SK-OV-3 ovarian) was 8.28 µM and the GI50 (HL-60(TB) leukemia) was 2.11 µM. For the same compound, the TGI (HL-60(TB) leukemia) was 4.36 µM, the GI50 (PC-3 prostate) was 2.48 µM and the TGI (PC-3 prostate) was 8.68 µM. For the same compound, the GI50 (SW-620 colon) was 2.26 µM, the TGI (SW-620 colon) was 5.24 µM and the GI50 (SF-539 CNS) was 1.74 µM. For the same compound, the TGI (SF-539 CNS) was 3.67 µM, the GI50 (KM12 colon) was 2.41 µM and the TGI (KM12 colon) was 6.88 µM. It also gave a GI50 (SR leukemia) of 2.3 µM, a TGI (SR leukemia) of 7 µM and a GI50 (HT29 colon) of 2.22 µM. The TGI (HT29 colon) was 6.4 µM, the GI50 (SK-MEL-2 melanoma) was 1.88 µM and the TGI (SK-MEL-2 melanoma) was 3.77 µM. It also gave a GI50 (SK-MEL-5 melanoma) of 1.83 µM, a TGI (SK-MEL-5 melanoma) of 3.35 µM and a GI50 (K-562 leukemia) of 2.08 µM. For the same compound, the TGI (K-562 leukemia) was 4.95 µM, the GI50 (HS 578T breast) was 2.08 µM and the TGI (HS 578T breast) was 6.92 µM.
